In patent US20230286955A1, “INHIBITORS OF THEM1” (Cornell University, priority 2022, published 2023):

Key:
[1] = system: primary brown adipocytes cultured from A-Them1Tg mice; test: Oxygen consumption rates (OCR) in primary brown adipocytes; format: cell-based, mouse; conditions: compounds at their in vitro IC50 concentrations, 30 min, NE 1 μM; vs wild type (DMSO)
Protocol: Primary brown adipocytes from 4- to 6-w old wild type and A-Them1Tg mice were isolated, cultured and differentiated as described (Okada et al., 2016). In brief, BAT tissues harvested from 5- to 7-w old mice were pooled, minced and digested with collagenase B (Sigma-Aldrich; St. Louis, MO), and dispersed in growth medium [DMEM/F12 containing 4.5 g/L glucose, 0.1 mM pyruvate, 10 mM HEPES (Thermo Fisher; Waltham, MA) supplemented with 1% penicillin/streptomycin, 1% GlutaMAX (Thermo Fisher; Waltham, MA) and 20% fetal bovine serum]. […] Upon achieving confluence, pre-adipocytes were induced to differentiate for 8 d by culturing for the first 48 h in differentiation medium [DMEM/F12 containing 4.5 g/L glucose, 0.1 mM pyruvate, 10 mM HEPES (Thermo Fisher; Waltham, MA) supplemented with 1% penicillin/streptomycin, 1% GlutaMAX (Thermo Fisher; Waltham, MA), 10% fetal bovine serum, bovine insulin (5 μg/mL; Thermo Fisher; Waltham, MA) and rosiglitazone (1 μM; Sigma Aldrich; St. Louis, MO)] supplemented with dexamethasone (5 μM; Sigma Aldrich; St. Louis, MO) and 3-isobutyl-1-methylxanthine (0.5 mM; Sigma Aldrich; St. Louis, MO) and differentiation medium thereafter. On differentiation d 6 to 8, the adipocyte differentiation media was supplemented with L-(−)-norepinephrine (+) bitartrate (Calbiochem; EMD Millipore; Billerica, MA). Primary brown adipocytes were maintained in a cell culture incubator at 37° C. with 5% CO2.
In primary brown adipocytes on d 8 of differentiation, values of OCR were measured in the presence or absence of compounds using a Seahorse XF96 extracellular flux analyzer (Agilent Technologies; Santa Clara, CA). […] OCR values were measured before and after the exposure of cells to NE (1 μM) and normalized with total live cell count calculated through staining with NucRed Live probe (Thermo Fisher; Waltham, MA) measured at 715 nm emission and 623 nm excitation using a SpectraMax i3X plate reader (Molecular Devices; San Jose; CA).

full-length human Acot12 = full-length human Acot12 (Homo sapiens, UniProt Q8WYK0); test: biochemical
Sequence of full-length human Acot12 (Q8WYK0 whole entry): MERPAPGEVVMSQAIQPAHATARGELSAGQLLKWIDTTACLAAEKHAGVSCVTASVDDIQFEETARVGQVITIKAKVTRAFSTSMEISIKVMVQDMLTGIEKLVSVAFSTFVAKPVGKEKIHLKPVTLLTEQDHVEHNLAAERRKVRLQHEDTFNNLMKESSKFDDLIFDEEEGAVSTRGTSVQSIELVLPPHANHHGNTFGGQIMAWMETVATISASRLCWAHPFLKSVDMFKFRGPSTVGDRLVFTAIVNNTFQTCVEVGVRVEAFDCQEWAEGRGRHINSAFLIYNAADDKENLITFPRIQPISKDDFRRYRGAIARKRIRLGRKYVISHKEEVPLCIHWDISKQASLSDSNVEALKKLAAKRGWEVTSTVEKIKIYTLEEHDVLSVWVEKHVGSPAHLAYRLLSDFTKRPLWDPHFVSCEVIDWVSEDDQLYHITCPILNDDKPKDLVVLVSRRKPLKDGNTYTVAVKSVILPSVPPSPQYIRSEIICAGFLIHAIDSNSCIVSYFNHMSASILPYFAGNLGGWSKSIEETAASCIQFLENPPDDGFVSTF

in vitro = conditions: C57BL/6, mouse, primary brown adipocytes
full-length Them1 = target: T1, full-length Them1 (Homo sapiens, UniProt Q8WXI4); test: Microscale thermophoresis binding, full-length Them1; conditions: in words
T1 sequence (Q8WXI4 14-594 isoform Q8WXI4-2 limits assumed): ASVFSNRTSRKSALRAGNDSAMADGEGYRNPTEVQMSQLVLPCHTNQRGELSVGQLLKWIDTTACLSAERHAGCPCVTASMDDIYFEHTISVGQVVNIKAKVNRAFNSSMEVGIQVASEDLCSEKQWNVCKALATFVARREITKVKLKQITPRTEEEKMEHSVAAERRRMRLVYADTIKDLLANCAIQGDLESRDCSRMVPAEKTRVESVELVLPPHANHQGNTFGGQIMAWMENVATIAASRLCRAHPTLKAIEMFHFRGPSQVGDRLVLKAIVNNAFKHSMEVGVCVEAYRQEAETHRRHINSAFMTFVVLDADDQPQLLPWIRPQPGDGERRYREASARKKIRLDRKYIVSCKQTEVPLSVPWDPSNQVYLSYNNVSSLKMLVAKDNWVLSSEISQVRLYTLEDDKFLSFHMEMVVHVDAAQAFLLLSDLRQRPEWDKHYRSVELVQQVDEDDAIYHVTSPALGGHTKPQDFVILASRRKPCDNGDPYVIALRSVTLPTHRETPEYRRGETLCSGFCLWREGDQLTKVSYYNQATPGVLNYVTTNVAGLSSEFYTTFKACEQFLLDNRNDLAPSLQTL

recombinant human Them1 = target: T2, recombinant human Them1 (Homo sapiens, UniProt Q8WXI4); test: Acot activity assay (fluorometric, C14-CoA), inhibition of Them1; format: biochemical; conditions: in words
T2 construct: Reaction labeling recombinant full-length Them1; made in house; host or cells: E. coli Shuffle T7
T2 sequence (Q8WXI4 14-594 isoform Q8WXI4-2 limits assumed): T1 sequence (Q8WXI4 14-594 isoform Q8WXI4-2 limits assumed)
Protocol: Human Them1 consists of two splice variants (Them1a and Them1b) that are distinguished by an additional 13 amino acids at the C-terminus of the ‘a’ isoform (Adams et al., 2001). […] Sufficient quantities of recombinant Them1 required for the HTS were obtained as a service of the University of Georgia Bioexpression and Fermentation Core Facility (Athens, GA). […] Purity of recombinant Them1 was analyzed by SDS-PAGE followed by Coomassie Brilliant Blue staining. The concentration of recombinant Them1 was determined according to the molar extinction coefficient at 280 nm, which was calculated based on the amino acid sequence (www.expasy.org). Single use aliquots of recombinant Them1 were stored at −80° C. until use to prevent protein precipitation during purification. The pH values of all buffers were adjusted to remain at least two units removed from the pI of recombinant Them1.

Them1-ΔSTART = target: T3, Them1-ΔSTART (Homo sapiens, UniProt Q8WXI4); test: Microscale thermophoresis binding, Them1-ΔSTART; conditions: for Kd: read-out: Kd, Thioesterase domains (Them1-ΔSTART ), MST, 100 nM labeled protein, 22° C.; for binding to Them1-ΔSTART: in words
T3 sequence (Q8WXI4 43-329 isoform Q8WXI4-2 limits assumed): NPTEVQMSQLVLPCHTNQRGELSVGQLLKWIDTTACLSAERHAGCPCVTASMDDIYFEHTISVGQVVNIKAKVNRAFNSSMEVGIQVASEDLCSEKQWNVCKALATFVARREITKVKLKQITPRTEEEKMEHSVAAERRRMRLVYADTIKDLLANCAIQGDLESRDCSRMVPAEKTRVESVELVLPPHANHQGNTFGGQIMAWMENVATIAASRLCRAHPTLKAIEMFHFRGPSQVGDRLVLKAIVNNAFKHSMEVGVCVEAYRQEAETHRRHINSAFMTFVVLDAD

Them1 START domain = target: T4, Them1 START domain (Homo sapiens, UniProt Q8WXI4); test: Microscale thermophoresis binding, START domain; conditions: in words
T4 sequence (Q8WXI4 339-594 isoform Q8WXI4-2): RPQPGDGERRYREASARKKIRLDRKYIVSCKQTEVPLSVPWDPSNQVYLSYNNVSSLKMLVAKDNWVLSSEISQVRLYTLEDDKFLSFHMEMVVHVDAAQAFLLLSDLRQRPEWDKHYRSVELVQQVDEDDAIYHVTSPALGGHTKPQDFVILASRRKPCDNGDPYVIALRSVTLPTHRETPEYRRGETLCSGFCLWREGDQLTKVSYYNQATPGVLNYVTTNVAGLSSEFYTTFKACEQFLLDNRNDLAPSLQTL

SMILES | Kd (full-length human Acot12) [µM] | Kd / binding affinity to full-length Them1 compared to the parent U1 compound (full-length Them1) | IC50 value compared to the parent U1 compound (recombinant human Them1) | Kd (Them1-ΔSTART) [µM] | binding to Them1-ΔSTART (Them1-ΔSTART) | binding affinity to the START domain compared to the parent U1 compound (Them1 START domain) | OCR in A-Them1Tg brown adipocytes, reversal of Them1 suppression [1] | CC50 at 48 h (in vitro) [µM]
Cc1[nH]c2ccccc2c1C(c1cccs1)N1CCCC1 (centres unmarked) [Compound U2] |  |  |  |  |  |  |  | > 125
Cc1[nH]c2ccccc2c1C(c1cccs1)N1CCN(C)CC1 (centres unmarked) [Compound U3] |  |  |  |  |  |  |  | > 125
Cc1[nH]c2ccccc2c1C(c1cccs1)N1CCOCC1 (centres unmarked) [Compound U5] |  |  |  |  |  |  |  | > 125
Cc1[nH]c2ccccc2c1C(c1cccs1)N1CCCCC1 (centres unmarked) [Compound U6] | > 125 |  |  | > 125 |  |  | reversed the suppressive effects of Them1 on values of OCR | > 125
Cc1[nH]c2ccccc2c1C(c1cccs1)N1CCNCC1 (centres unmarked) [Compound U9, 2-methyl-3-(piperazin-1-yl(thiophen-2-yl)methyl)-1H-indole] | > 125 |  |  | > 125 |  |  | reversed the suppressive effects of Them1 on values of OCR | > 125

The next lines start with results.

Kd (full-length human Acot12) [µM] | Kd / binding affinity to full-length Them1 compared to the parent U1 compound (full-length Them1) | IC50 value compared to the parent U1 compound (recombinant human Them1) | Kd (Them1-ΔSTART) [µM] | binding to Them1-ΔSTART (Them1-ΔSTART) | binding affinity to the START domain compared to the parent U1 compound (Them1 START domain) | SMILES | OCR in A-Them1Tg brown adipocytes, reversal of Them1 suppression [1] | CC50 at 48 h (in vitro) [µM]
> 125 |  |  |  |  |  | Cc1[nH]c2ccccc2c1C(c1cccs1)N1CCN(Cc2ccccc2)CC1 (centres unmarked) [3-((4-benzylpiperazin-1-yl)(thiophen-2-yl)methyl)-2-methyl-1H-indole] | reversed the suppressive effects of Them1 on values of OCR | > 125
 | comparable | comparable |  |  |  | Cc1[nH]c2ccccc2c1C(c1cccs1)N1CCN(c2ccccc2)CC1 (centres unmarked) [Compound U4] |  | > 125
> 125 | comparable |  | > 125 | did not bind | comparable | CCOC(=O)C1CCN(C(c2cccs2)c2c(C)[nH]c3ccccc23)CC1 (centres unmarked) [Compound U7, ethyl 1-((2-methyl-1H-indol-3-yl)(thiophen-2-yl)methyl)piperidine-4-carboxylate] |  | > 125
> 125 |  |  | > 125 |  |  | CC(=O)N1CCN(C(c2cccs2)c2c(C)[nH]c3ccccc23)CC1 (centres unmarked) [Compound U10, 1-(4-((2-methyl-1H-indol-3-yl)(thiophen-2-yl)methyl)piperazin-1-yl)ethan-1-one] |  | > 125
> 125 | comparable |  | > 125 | did not bind | comparable | Cc1[nH]c2ccccc2c1C(c1cccs1)N1CCN(C(=O)c2ccccc2)CC1 (centres unmarked) [Compound U13, (4-((2-methyl-1H-indol-3-yl)(thiophen-2-yl)methyl)piperazin-1-yl)(phenyl)methanone] |  | > 125
> 125 | comparable |  | > 125 | did not bind | comparable | CCOC(=O)N1CCN(C(c2ccc(C)s2)c2c(C)[nH]c3ccccc23)CC1 (centres unmarked) [Compound U16, ethyl 4-((2-methyl-1H-indol-3-yl)(5-methylthiophen-2-yl)methyl)piperazine-1-carboxylate] |  | > 125
> 125 |  |  |  |  |  | Cc1[nH]c2ccccc2c1C(c1cccs1)N1CCN(C(=O)OCc2ccccc2)CC1 (centres unmarked) [benzyl 4-((2-methyl-1H-indol-3-yl)(thiophen-2-yl)methyl)piperazine-1-carboxylate] | remained suppressed | 
> 125 |  |  |  |  |  | CCOC(=O)N1CCN(C(c2ccccc2)c2c(C)[nH]c3ccccc23)CC1 (centres unmarked) [ethyl 4-((2-methyl-1H-indol-3-yl)(phenyl)methyl)piperazine-1-carboxylate] |  | 
